Read-outs that look alike come from different tables or passages of the source. Marks after values point to notes of the source that are not given here.
Legend:
[1] = system: healthy Caucasian female volunteers; details: for Parameter a* (skin redness), change compared to placebo: Retinol 0.075%
Experimental: (§2) This study was carried out on 3 groups of 18 healthy, female volunteers, aged 45 to 66 years and presenting with crow's feet wrinkles. Each of the volunteers applied two of the three formulae to half the face twice-daily in a randomized manner for 42 days.

hyaluronic acid = assay: Hyaluronic acid synthesis by ELISA on older human fibroblasts; assay type: cell-based; details: 1 μM Retinol
Experimental: The older human fibroblasts are seeded and incubated at 37° C. in an atmosphere containing 5% CO2.
The cells are then incubated at 37° C. in an atmosphere containing 5% CO2 for 48 hours.

loricrin = assay: Loricrin synthesis in reconstructed epidermises (immunohistofluorescence); assay type: cell-based, human; details: older reconstructed epidermises, 10 μM Retinol
Experimental: (§1) This study was carried out on normal and older reconstructed epidermises. The epidermal construction was evaluated using a Hematoxylin Eosin (HE) stain and the synthesis of the barrier function markers by immunohistofluorescence. The procedure of the study is described below. […] The epidermides are recovered, fixed, dehydrated, and enclosed in paraffin. Sections (4 μm) are then made using a microtome. […] Viewing is performed using a microscope coupled to an image analysis system. The thickness of the epidermises obtained was measured on the histological sections produced. The rate of the various synthesized markers is proportional to the intensity of green fluorescence present on the reconstructed epidermises. A quantitative analysis of the images was carried out using an image analysis script. The results are expressed in arbitrary units (AU).

aquaporin 3 = assay: Aquaporin 3 synthesis in reconstructed epidermises (immunohistofluorescence); assay type: cell-based, human; details: older reconstructed epidermises, 10 μM Retinol
Experimental: as §1

[2] = system: healthy Caucasian female volunteers; assay: Quality of the dermal fibers by LC-OCT, Caucasian volunteers; assay type: in vivo, human; details: Retinol 0.075%
Experimental: (§3) This study was carried out on 3 groups of 18 healthy female volunteers, aged 45 to 66 years and presenting with crow's feet wrinkles. Each of the volunteers applied two of the three study formulae to half the face twice-daily in a randomized manner for 42 days.
Acquisitions carried out by LC-OCT after 21 and 42 days of treatment at the cheeks allowed evaluation of the structure of the quality of the fibers.

[3] = system: healthy Caucasian female volunteers; assay: Structure of the dermal-epidermal junction by LC-OCT, Caucasian volunteers; assay type: in vivo, human; details: Retinol 0.075%
Experimental: as §3
Acquisitions carried out by LC-OCT after 21 and 42 days of treatment at the cheeks allowed evaluation of the structure of the dermal-epidermal junction

Ki-67 = Ki-67 synthesis in reconstructed epidermises (immunohistofluorescence); assay type: cell-based, human; details: older reconstructed epidermises, 10 μM Retinol
Experimental: as §1

older human cells = assay: Gene expression by quantitative PCR, structural elements of the DEJ, older cells; assay type: cell-based; details: 1 μM Retinol
Experimental: This study was carried out on 34 genes involved in the various processes related to the establishment of: • the skin barrier function: proliferation, hydration, cohesion, differentiation, desquamation, innate immunity, anti-oxidant and inflammation system (cf. Table 9: Proliferation, Hydration, Cohesion, Differentiation, Anti-Radical and Inflammation). • the dermal-epidermal junction DEJ; • the dermal matrix; organization and degradation of the fibers, hydration and inflammation (cf. Table 9: Matrix Organization, Matrix Degradation, Hydration, Proteoglycan, Growth and Inflammation Factors). […] The procedure of the study is described below. The young and older human cells are seeded and incubated at 37° C. […] After several days, the cells are recovered and the total RNA extracted. The RNAs were reverse-transcribed and the complementary DNAs obtained were analyzed by the quantitative PCR technique. The mRNAs of internal reference controls were analyzed in parallel with the mRNAs of the markers involved in the barrier function of the epidermis, in the DEJ and in the dermal matrix. The incorporation of fluorescence is measured continuously using a thermal cycler. The RQ (relative quantification) analysis is performed using software.

[4] = system: healthy Caucasian female volunteers; assay: Anti-wrinkle effect by light projection (crow's feet), Caucasian volunteers; assay type: in vivo, human; details: Retinol 0.075%
Experimental: The anti-wrinkle effect is evaluated according to the roughness parameter Sa, evaluated on the crow's feet zone by light projection and on the negative volume, evaluated on the same zone.

collagen I = assay: Collagen I network by immunocytology on older human fibroblasts; assay type: cell-based; details: 0.1 μM Retinol
Experimental: Immunocytological labeling of collagen I is carried out by fixing and permeabilization using primary antibody I and secondary antibody coupled to a fluorophore. A quantitative analysis was carried out by reading the fluorescence of the various conditions tested using a fluorometer. The intensity of the collagen I network is proportional to the intensity of green fluorescence present. The results are expressed in fluorescence value (AU).

[5] = system: healthy Caucasian female volunteers; assay: Complexion radiance by visual scoring by experts, Caucasian volunteers; assay type: in vivo, human; details: Retinol 0.075%
Experimental: The complexion radiance is evaluated by experts using the following parameters: radiance, […], olive color and eye fatigue.

claudin-1 = assay: Claudin-1 synthesis in reconstructed epidermises (immunohistofluorescence); assay type: cell-based, human; details: older reconstructed epidermises, 10 μM Retinol
Experimental: as §1

[6] = system: healthy Caucasian female volunteers; assay: Transepidermal water losses (Tewameter), Caucasian volunteers; assay type: in vivo, human; details: Retinol 0.075%
Experimental: Transepidermal water losses (TEWL) measurements at the cheeks were carried out using a Tewameter® before and after 21 and 42 days of twice-daily application.
as §2

[7] = system: older reconstructed epidermises; assay: Thickness of reconstructed epidermises (hematoxylin eosin stain); assay type: cell-based, human; details: 10 μM Retinol
Experimental: This study was carried out on normal and older reconstructed epidermises. The epidermal construction was evaluated using a Hematoxylin Eosin (HE) stain and the synthesis of the barrier function markers by immunohistofluorescence. The procedure of the study is described below. […] The epidermides are recovered, fixed, dehydrated, and enclosed in paraffin. Sections (4 μm) are then made using a microtome. The analysis of the thickness of the reconstructed epidermises is carried out by hematoxylin eosin (HE) stain. Viewing is performed using a microscope coupled to an image analysis system. The thickness of the epidermises obtained was measured on the histological sections produced.

[8] = system: human keratinocytes from older donors (≥60 years); assay: Gene expression by quantitative PCR on older human keratinocytes; assay type: cell-based; details: 1 μM Retinol
Experimental: The procedure of the study is described below. The young and older human cells are seeded and incubated at 37° C. […] After several days, the cells are recovered and the total RNA extracted. The RNAs were reverse-transcribed and the complementary DNAs obtained were analyzed by the quantitative PCR technique. The mRNAs of internal reference controls were analyzed in parallel with the mRNAs of the markers involved in the barrier function of the epidermis, in the DEJ and in the dermal matrix. The incorporation of fluorescence is measured continuously using a thermal cycler. The RQ (relative quantification) analysis is performed using software.

`CC1=C(/C=C/C(C)=C/C=C/C(C)=C/CO)C(C)(C)CCC1` [Retinol, retinol] was tested, and the “Appearance of skin redness, parameter a* (in words)” value ([1]; 0.075% of retinol, from 21 days of treatment) was “significantly increases parameter a*”, the “Parameter a* (skin redness), change compared to placebo” value ([1]; D 21) was “+5%” and the “Parameter a* (skin redness), change compared to placebo” value ([1]; D 42) was “+5%”. The “Synthesis of hyaluronic acid (ng/mg proteins)” value (hyaluronic acid; Older fibroblasts, 48 hours) was 4112 ng/mg proteins, the “Content of hyaluronic acid/control (%)” value (hyaluronic acid; older fibroblasts) was “+8%” and the “Ability to restore loricrin synthesis (%)” value (loricrin) was 0%. The “Synthesis of loricrin (×10^4 AU)” value (loricrin; 48 hours) was 177 ×10^4 AU, the “Ability to restore aquaporin 3 synthesis (%)” value (aquaporin 3) was “+100%” and the “Aquaporin 3 synthesis (×10^4 AU)” value (aquaporin 3; 48 hours) was 355** ×10^4 AU. For the same molecule, the “Fiber Quality, change compared to placebo” value (shortened to “Fiber Quality, change”) ([2]; D 21) was “+3%”, the “Fiber Quality, change” value ([2]; D 21, listed as retinol) was “+3%” and the “Fiber Quality, change” value ([2]; D 42) was “+12%”. For the same molecule, the “Sinuosity of the DEJ, change compared to placebo” value (shortened to “Sinuosity of the DEJ, change”) ([3]; D 21) was “+2%”, the “Sinuosity of the DEJ, change” value ([3]; D 21, listed as retinol) was “+2%” and the “Sinuosity of the DEJ, change” value ([3]; D 42) was “+3%”. For the same molecule, the “Sinuosity of the DEJ, change” value ([3]; D 42, listed as retinol) was “+3%”, the “Ability to restore Ki-67 synthesis (%)” value (Ki-67) was “+71%” and the “Ki-67-positive cells (%)” value (Ki-67; 48 hours) was 23%. The “COL4A1: Efficacy of retinol/older control (%)” value (older human cells) was −5%, the “COL7A1: Efficacy of retinol/older control (%)” value (older human cells) was −21% and the “COL17A1: Efficacy of retinol/older control (%)” value (older human cells) was −16%. For the same molecule, the “LAMA3: Efficacy of retinol/older control (%)” value (older human cells) was −9%, the “COL4A1 expression (qPCR)” value (older human cells; young cells control=100) was 38 and the “COL7A1 expression (qPCR)” value (older human cells; young cells control=100) was 68. The “COL17A1 expression (qPCR)” value (older human cells; young cells control=100) was 81, the “LAMA3 expression (qPCR)” value (older human cells; young cells control=100) was 94 and the “Negative Volume (crow's feet), change compared to placebo” value (“Negative Volume (crow's feet), change” for short) ([4]; D 21) was −12%. For the same molecule, the “Parameter Sa (roughness, crow's feet), change compared to placebo” value ([4]; D 21) was −5%, the “Negative Volume (crow's feet), change” value ([4]; D 42) was −20% and the “Parameter Sa (roughness, crow's feet), change compared to placebo” value ([4]; D 42) was −7%. For the same molecule, the “Negative Volume (crow's feet), change” value ([4]; D 42, listed as retinol) was −20%, the “Synthesis of the collagen I network (×10^3 AU)” value (collagen I) was 174 ×10^3 AU and the “Eye fatigue, change compared to placebo” value ([5]; D 21) was −2%. For the same molecule, the “Olive color, change compared to placebo” value ([5]; D 21) was −11%, the “Pinkness, change compared to placebo” value ([5]; D 21) was “+14%” and the “Radiance, change compared to placebo” value ([5]; D 21) was “+6%”. For the same molecule, the “Eye fatigue, change compared to placebo” value ([5]; J42) was −10%, the “Olive color, change compared to placebo” value ([5]; J42) was −10% and the “Pinkness, change compared to placebo” value ([5]; J42) was “+19%”. The “Radiance, change compared to placebo” value ([5]; J42) was “+11%”, the “Ability to restore claudin-1 synthesis (%)” value (claudin-1) was 0% and the “Synthesis of claudin-1 (×10^4 AU)” value (claudin-1; 48 hours) was 136 ×10^4 AU. For the same molecule, the “Water loss, change compared to placebo” value ([6]; D 21) was “+24%”, the “Water loss, change compared to placebo” value ([6]; D 21, listed as retinol) was “+24%” and the “Water loss, change compared to placebo” value ([6]; D 42) was “+15%”. The “Water loss, change compared to placebo” value ([6]; D 42, listed as retinol) was “+15%”, the “Ability to restore the thickness of the epidermis (%)” value [7] was “+94%” and the “Measurement of the thickness of the epidermis (μm)” value ([7]; 48 hours) was 59 μm. The “AQP3: Efficacy of retinol/older control (%)” value [8] was “+13%”, the “CD44: Efficacy of retinol/older control (%)” value [8] was “+77%” and the “CLDN1: Efficacy of retinol/older control (%)” value [8] was −52%. The “CXCL8: Efficacy of retinol/older control (%)” value [8] was “+189%”, the “DSG: Efficacy of retinol/older control (%)” value [8] was −99% and the “FLG: Efficacy of retinol/older control (%)” value [8] was −76%. For the same molecule, the “HAS3: Efficacy of retinol/older control (%)” value [8] was “+425%”, the “IVL: Efficacy of retinol/older control (%)” value [8] was “+126%” and the “KRT10: Efficacy of retinol/older control (%)” value [8] was −97%. The “LOR: Efficacy of retinol/older control (%)” value [8] was −95%.

Reference: patent US20250319015A1, “VACCINIUM MACROCARPON EXTRACT AND ANTI-AGEING COSMETIC EFFECTS THEREOF” (SOCIETE INDUSTRIELLE LIMOUSINE D'APPLICATION BIOLOGIQUE, priority 2021, published 2025)
